Where two headings read alike, the source gives them in different places.
Tests used:
[1] = target: DNA polymerase of hepatitis B virus (HBV) (Hepatitis B virus genotype D subtype ayw, UniProt P03156); assay: Inhibition of hepatitis B virus (HBV) DNA polymerase, cell free assay (Test I); format: biochemical
Description: The HBV associated DNA polymerase activity can be measured in vitro (Kaplan et al., J. Virol., 12,995-1005, 1973). A slight modification of this method has been used to test the substance for inhibition of this DNA polymerase activity. (Nordenfelt E., (Oberg, B., Helgstrand E. and Miller E. Acta path., Microbiol. Scand. Sect B, 88:169-175, 1980). With this assay the 3'-deoxy-3'-fluorothymidine-5'-triphosphate has been tested, instead of the prodrug 3'-deoxy- 3'-fluorothymidine, to evaluate its potential against hepatitis B virus DNA polymerase.
3'-deoxy-3'-fluorothymidine-5'-triphosphate was added to the final concentrations of 0.01 μM, 0.05 μM, 0.1 μM, 0.5 μM and 1.0 μM in the reaction mixture. The inhibition is calculated after 3 hours incubation at 37° C. and based on cpm compared to control with added water.

[2] = target: T1, reverse transcriptase of HIV (HTLV-III/LAV) (Human immunodeficiency virus type 1 group M subtype B, UniProt P04585); assay: Inhibition of HIV (HTLV-III/LAV) reverse transcriptase, cell free assay (Test II); format: biochemical
T1 construct: reverse transcriptase of HIV (HTLV-III/LAV) in cell free assay
Experimental: The assay was performed as described by Vrang et Oberg, Antimicrob. Agents Chemother. 29,867-872 (1986).

[3] = test system: DNA synthesis; settings: Journal f. prakt. Chemie, Vol. 315, 895-900 (1973); cited from earlier work
[4] = test system: HIV (HTLV-III/LAV) in H9 cells
Experimental: MATERIAL AND METHODS; HIV INFECTION OF H9 CELLS
The cells were then pelleted and dispersed in 2.5 ml phosphate buffered saline (PBS) including 2 μg/ml Polybrene. After incubation for 30 min the cells were pelleted and infected with HIV. After an adsorption period of 1 hour the cells were pelleted and washed once with 2.5 ml PBS. […] Samples for reverse transcriptase activity tests were taken as indicated.
1.3 ml samples from the supernatant of each culture were centrifuged at 18 000 rpm in a 55-34 rotor for 1.5 hours and the virus pellet resuspended in 100 μl buffer containing 50 mM Tris-HC1, pH 7.5; 35 mM KC1; 4 mM DTT; 1 mM EDTA; 1.3 % Triton X-100.50 μl samples were taken to the reverse transcriptase activity tests and analyzed in a 100 μl reaction mixture containing 75 mM Tris-HC1, pH 8.0; 60 mM KC1; 6.2 mM MgC12 ; 6 mM DTT; 0.5 mM EDTA; 0.65 % Triton X-100; 100 μg/ml BSA; 25 μCi/ml ^3 H-dTTP (spec activity 80 Ci/mmol); 2.5 μg/ml (dT)12-18 ; and 2.0 μg/ml (rA)n. Incubation was for 1 hour at 37° C. and the TCA-insoluble product precipitated onto Whatman GF/A filter papers, washed and dried, and counted in a liquid scintillation counter.

Sequence of DNA polymerase of hepatitis B virus (HBV) (P03156 whole entry): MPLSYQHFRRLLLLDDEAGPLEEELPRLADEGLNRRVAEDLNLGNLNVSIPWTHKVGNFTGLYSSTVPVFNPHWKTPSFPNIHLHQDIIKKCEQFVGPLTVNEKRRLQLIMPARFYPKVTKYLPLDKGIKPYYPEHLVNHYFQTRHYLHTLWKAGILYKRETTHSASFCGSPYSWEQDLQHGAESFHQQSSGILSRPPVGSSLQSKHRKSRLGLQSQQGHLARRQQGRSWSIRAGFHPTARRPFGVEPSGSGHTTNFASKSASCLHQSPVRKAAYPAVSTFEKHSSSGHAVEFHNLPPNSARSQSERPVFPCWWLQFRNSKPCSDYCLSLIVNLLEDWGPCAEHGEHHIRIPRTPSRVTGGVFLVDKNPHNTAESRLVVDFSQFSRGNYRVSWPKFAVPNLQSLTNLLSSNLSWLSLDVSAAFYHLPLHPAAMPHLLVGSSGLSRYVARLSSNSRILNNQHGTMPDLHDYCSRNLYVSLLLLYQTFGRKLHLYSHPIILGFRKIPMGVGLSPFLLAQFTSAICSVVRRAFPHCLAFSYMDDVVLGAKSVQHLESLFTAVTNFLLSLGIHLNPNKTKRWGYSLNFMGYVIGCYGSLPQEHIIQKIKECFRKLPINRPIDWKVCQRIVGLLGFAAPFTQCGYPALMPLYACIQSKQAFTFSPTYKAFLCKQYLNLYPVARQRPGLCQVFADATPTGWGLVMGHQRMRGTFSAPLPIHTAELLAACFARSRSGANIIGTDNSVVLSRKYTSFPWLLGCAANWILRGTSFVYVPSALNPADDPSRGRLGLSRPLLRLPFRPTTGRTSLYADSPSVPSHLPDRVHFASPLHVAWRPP

SMILES: Cc1cn([C@H]2C[C@H](F)[C@@H](COP(=O)(O)OP(=O)(O)OP(=O)(O)O)O2)c(=O)[nH]c1=O [3'-deoxy-3'-fluorothymidine-5'-triphosphate]
- inhibition at 1 µM ([1]; read-out: % inhibition of HBV DNA polymerase activity): 88%
- inhibition at 0.01 µM ([2]; 0.01 μM): 12%
- inhibition at 0.05 µM ([2]; 0.05 μM): 27%
- inhibition at 0.1 µM ([2]; 0.1 μM): 38%

SMILES: Cc1cn([C@H]2C[C@H](F)[C@@H](CO)O2)c(=O)[nH]c1=O
- apparent ID50-value ([1]; from Table I, tested as 5'-triphosphate, 3 hours at 37° C.): 160 nM
- cytostatic and virustatic activity [3]: cytostatic and virustatic activity as selective inhibitor of DNA synthesis
- Reverse transcriptase activity ([4]; 0.01 μM, day 4 post-infection, untreated 0.9): 0.5 cpm × 10^-3
- Reverse transcriptase activity ([4]; 0.01 μM, day 8 post-infection, untreated 19): 1.3 cpm × 10^-3
- Reverse transcriptase activity ([4]; 0.01 μM, day 11 post-infection, untreated 17): 1.9 cpm × 10^-3
- Reverse transcriptase activity ([4]; 0.01 μM, day 15 post-infection, untreated 11): 2.7 cpm × 10^-3
- Reverse transcriptase activity ([4]; 0.01 μM, day 18 post-infection, untreated 27): 28 cpm × 10^-3
- Reverse transcriptase activity ([4]; 0.01 μM, day 22 post-infection, untreated 46): 52 cpm × 10^-3
- Reverse transcriptase activity ([4]; 0.01 μM, day 29 post-infection, untreated 16): 21 cpm × 10^-3
- effect on reverse transcriptase activity of HIV (in words) ([4]; 0.01 μM, up to 11 days): enzyme activity was not detected
- Reverse transcriptase activity ([4]; 0.05 μM, day 4 post-infection, untreated 0.9): 0.3 cpm × 10^-3
- Reverse transcriptase activity ([4]; 0.05 μM, day 8 post-infection, untreated 19): 0.3 cpm × 10^-3
- Reverse transcriptase activity ([4]; 0.05 μM, day 11 post-infection, untreated 17): 0.4 cpm × 10^-3
- Reverse transcriptase activity ([4]; 0.05 μM, day 15 post-infection, untreated 11): 0.6 cpm × 10^-3
- Reverse transcriptase activity ([4]; 0.05 μM, day 18 post-infection, untreated 27): 0.5 cpm × 10^-3
- Reverse transcriptase activity ([4]; 0.05 μM, day 22 post-infection, untreated 46): 1.6 cpm × 10^-3
- Reverse transcriptase activity ([4]; 0.05 μM, day 29 post-infection, untreated 16): 3.1 cpm × 10^-3
- effect on reverse transcriptase activity of HIV (in words) ([4]; 0.05 μM, up to 22 days): no significant enzyme activity was detected
- effect on reverse transcriptase activity of HIV (in words) ([4]; 0.1 μM and higher concentrations, during at least 29 days): completely prevents the enzyme activity
- Reverse transcriptase activity ([4]; 0.1 μM, day 4 post-infection, untreated 0.9): 0.2 cpm × 10^-3
- Reverse transcriptase activity ([4]; 0.1 μM, day 8 post-infection, untreated 19): 0.2 cpm × 10^-3
- Reverse transcriptase activity ([4]; 0.1 μM, day 11 post-infection, untreated 17): 0.5 cpm × 10^-3
- Reverse transcriptase activity ([4]; 0.1 μM, day 15 post-infection, untreated 11): 0.4 cpm × 10^-3
- Reverse transcriptase activity ([4]; 0.1 μM, day 18 post-infection, untreated 27): 0.4 cpm × 10^-3
- Reverse transcriptase activity ([4]; 0.1 μM, day 22 post-infection, untreated 46): 0.2 cpm × 10^-3
- Reverse transcriptase activity ([4]; 0.1 μM, day 29 post-infection, untreated 16): 0.2 cpm × 10^-3
- Reverse transcriptase activity ([4]; 0.5 μM, day 4 post-infection, untreated 0.9): 0.3 cpm × 10^-3
- Reverse transcriptase activity ([4]; 0.5 μM, day 8 post-infection, untreated 19): 0.3 cpm × 10^-3
- Reverse transcriptase activity ([4]; 0.5 μM, day 11 post-infection, untreated 17): 0.5 cpm × 10^-3
- Reverse transcriptase activity ([4]; 0.5 μM, day 15 post-infection, untreated 11): 0.3 cpm × 10^-3
- Reverse transcriptase activity ([4]; 0.5 μM, day 18 post-infection, untreated 27): 0.6 cpm × 10^-3
- Reverse transcriptase activity ([4]; 0.5 μM, day 22 post-infection, untreated 46): 0.1 cpm × 10^-3
- Reverse transcriptase activity ([4]; 0.5 μM, day 29 post-infection, untreated 16): 0.2 cpm × 10^-3
- Reverse transcriptase activity ([4]; 1.0 μM, day 4 post-infection, untreated 0.9): 0.3 cpm × 10^-3
- Reverse transcriptase activity ([4]; 1.0 μM, day 8 post-infection, untreated 19): 0.2 cpm × 10^-3
- Reverse transcriptase activity ([4]; 1.0 μM, day 11 post-infection, untreated 17): 0.5 cpm × 10^-3
- Reverse transcriptase activity ([4]; 1.0 μM, day 15 post-infection, untreated 11): 0.4 cpm × 10^-3
- Reverse transcriptase activity ([4]; 1.0 μM, day 18 post-infection, untreated 27): 0.5 cpm × 10^-3
- Reverse transcriptase activity ([4]; 1.0 μM, day 22 post-infection, untreated 46): 0.1 cpm × 10^-3
- Reverse transcriptase activity ([4]; 1.0 μM, day 29 post-infection, untreated 16): 0.2 cpm × 10^-3
- ID50-value with regard to the activity of HIV reverse transcriptase ([2]; by extrapolation from Table II, tested as 5'-triphosphate): 200 nM
